Here are results for 22 molecules from patent publication US4318847A, “Physiologically active tetrapeptides” (Zaidan Hojin Biseibutsu Kagaku Kenkyu Kai, priority 1979, dated 1982).

Assay [1] addresses T1, aminopeptidase A (AP-A) (Homo sapiens, UniProt Q07075).
T1 construct: an AP-A solution which was obtained by ammonium sulfate fractionation according to the method of Nagatsu et al; from tissue
Nature of the assay: AP-A (E.C. 3,4,11,7) inhibition assay. The assay is classed as biochemical. As to conditions: L-α-glutamyl-β-naphthylamide substrate, pH 7.0, 37° C., 30 minutes; read-out: IC/50 AP--A: amount of the peptide to inhibit the intact activity of the target enzyme by 50% (converted). The method, then: That is, 0.25 ml of 2 mM L-α-glutamyl-β-naphthylamide, 0.54 ml of 0.1 M Tris-HCl buffer, pH 7.0, 0.01 ml of 0.1 M calcium chloride and 0.1 ml of a test sample in water were mixed and kept at 37° C. for 3 minutes. The reaction was initiated by addition of 0.1 ml of an AP-A solution which was obtained by ammonium sulfate fractionation according to the method of Nagatsu et al. After incubation at 37° C. for 30 minutes, 1 ml of 1.0 M acetate buffer, pH 4.2, containing 1.0 mg/ml Garnet GBC (orthoaminoazotoluene diazonium salt) and 10% Tween 20 (Atlas Chemical Co., U.S.A.) was added to the reaction solution and then allowed to stand at room temperature for 15 minutes. The absorbance of the test solution (a) was measured at 530 nm. The control solution without the test sample was used as the blank test (absorbance (b)). The inhibition percentage on aminopeptidase A was calculated as [(b-a)/b]x100.

The target of assay [2] is T2, leucine aminopeptidase (Leu-AP) (Sus scrofa, UniProt P28839).
T2 construct: purchased Boehringer-Mannheim Co
T2 sequence (P28839 1-519): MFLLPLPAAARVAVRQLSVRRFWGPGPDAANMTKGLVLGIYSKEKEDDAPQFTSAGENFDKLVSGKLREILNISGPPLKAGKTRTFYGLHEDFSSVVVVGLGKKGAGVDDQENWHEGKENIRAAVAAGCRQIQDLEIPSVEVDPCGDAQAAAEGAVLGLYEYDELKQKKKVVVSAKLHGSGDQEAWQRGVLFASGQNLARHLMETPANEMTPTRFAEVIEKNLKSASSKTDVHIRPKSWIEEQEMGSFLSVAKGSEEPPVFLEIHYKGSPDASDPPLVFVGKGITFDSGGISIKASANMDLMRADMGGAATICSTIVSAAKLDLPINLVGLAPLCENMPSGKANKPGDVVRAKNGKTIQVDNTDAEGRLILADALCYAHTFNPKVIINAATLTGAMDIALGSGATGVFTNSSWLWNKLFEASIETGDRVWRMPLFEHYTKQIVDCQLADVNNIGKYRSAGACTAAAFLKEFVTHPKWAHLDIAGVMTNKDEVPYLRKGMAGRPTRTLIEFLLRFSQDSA
Put plainly: Leu-AP (E.C. 3,4,11,1) inhibition assay. The assay is classed as biochemical. As to conditions: Leu-AP (Boehringer-Mannheim), leucyl-β-naphthylamide substrate, pH 7.6, 37° C., 30 minutes; read-out: IC/50 Leu--AP: amount of the peptide to inhibit the intact activity of the target enzyme by 50% (converted). How it is done:
For enzyme assay, 0.25 ml of 2 mM […], 0.6 ml of 0.1 M Tris-HCl buffer, pH 7.6, and 0.1 ml of an aqueous solution containing a test compound were mixed and allowed to stand at 37° C. for 3 minutes. After a 20-fold dilution of Leu-AP (Boehringer-Mannheim Co.) in 0.1 M Tris-HCl buffer, pH 7.6 (0.05 ml) was added to the solution, the reaction was performed at 37° C. for 30 minutes. The inhibition percentage was measured as detailed in (1).

Where a SMILES comes first, the peptide text is derived from it. The star is where a group is joined. X1 = CC(C)C[C@@H](N)[C@H](O)C(=O)*

T1 sequence (Q07075 whole entry): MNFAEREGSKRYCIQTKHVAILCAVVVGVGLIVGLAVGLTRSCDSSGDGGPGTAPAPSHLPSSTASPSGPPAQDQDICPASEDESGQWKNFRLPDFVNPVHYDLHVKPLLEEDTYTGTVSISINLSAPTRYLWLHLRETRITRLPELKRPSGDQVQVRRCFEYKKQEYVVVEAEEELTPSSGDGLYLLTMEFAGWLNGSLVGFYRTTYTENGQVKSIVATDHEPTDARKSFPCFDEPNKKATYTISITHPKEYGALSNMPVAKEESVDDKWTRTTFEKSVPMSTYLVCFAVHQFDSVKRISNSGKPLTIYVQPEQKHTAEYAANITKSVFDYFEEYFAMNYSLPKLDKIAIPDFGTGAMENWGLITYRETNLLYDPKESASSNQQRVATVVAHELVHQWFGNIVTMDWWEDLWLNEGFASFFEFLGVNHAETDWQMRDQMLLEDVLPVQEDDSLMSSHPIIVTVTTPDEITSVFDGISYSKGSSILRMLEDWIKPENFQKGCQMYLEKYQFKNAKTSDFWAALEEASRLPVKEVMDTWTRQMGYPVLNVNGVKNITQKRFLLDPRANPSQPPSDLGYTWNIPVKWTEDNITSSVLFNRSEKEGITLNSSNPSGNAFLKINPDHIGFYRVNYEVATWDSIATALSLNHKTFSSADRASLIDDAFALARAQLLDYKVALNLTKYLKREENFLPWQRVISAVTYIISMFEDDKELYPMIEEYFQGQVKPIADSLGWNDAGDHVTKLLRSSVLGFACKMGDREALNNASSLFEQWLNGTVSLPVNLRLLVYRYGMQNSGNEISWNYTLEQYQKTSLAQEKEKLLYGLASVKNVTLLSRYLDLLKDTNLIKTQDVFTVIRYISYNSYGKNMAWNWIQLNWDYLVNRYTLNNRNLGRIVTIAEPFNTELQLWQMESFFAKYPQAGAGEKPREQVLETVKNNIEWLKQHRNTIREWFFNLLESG

In the case of `CC(C)C[C@@H](N)[C@H](O)C(=O)N[C@@H](C)C(=O)N[C@@H](C)C(=O)N[C@@H](CC(=O)O)C(=O)O` [X--Ala--Ala--Asp], the IC50 in assay [1] and in assay [2] was > 597 µM each time.

In the case of `CC(C)C[C@@H](N)[C@H](O)C(=O)N[C@@H](CC(=O)O)C(=O)O` [X--Asp], the IC50 was > 905 µM in assay [1] and 105 µM in assay [2].

`CC(C)C[C@H](NC(=O)[C@@H](O)[C@H](N)CC(C)C)C(=O)N[C@H](C(=O)N[C@@H](CC(=O)O)C(=O)O)C(C)C` [X--Leu--Val--Asp, (2S,3R)-AHMHA-Leu-Val-Asp]: the IC50 was 10.2 µM in assay [1] and 0.614 µM in assay [2].

In the case of `CC(C)C[C@@H](N)[C@H](O)C(=O)N[C@@H](CCCCN)C(=O)N[C@H](C(=O)N[C@@H](CC(=O)O)C(=O)O)C(C)C` [X--Lys--Val--Asp, (2S,3R)-AHMHA-Lys-Val-Asp], the IC50 in assay [1] is 2.98 µM; in assay [2], 218 µM.

With `CC(C)C[C@@H](N)[C@H](O)C(=O)N[C@@H](CCCCN)C(=O)N[C@H](C(=O)N[C@H](C(=O)O)C(C)C)C(C)C` [X--Lys--Val--Val, (2S,3R)-AHMHA-Lys-Val-Val], the IC50 was 3.9 µM in assay [1] and 369 µM in assay [2].

With `CC(C)C[C@@H](N)[C@H](O)C(=O)N1CCC[C@H]1C(=O)O` [X--Pro], the figures for the IC50 in assay [1] and in assay [2] were 774 µM and 83.2 µM, respectively.

Regarding `CC(C)C[C@@H](N)[C@H](O)C(=O)N[C@H](C(=O)N[C@H](C(=O)N[C@@H](CC(=O)O)C(=O)O)C(C)C)[C@@H](C)O` [X--Thr--Val--Asp, (2S,3R)-AHMHA-Thr-Val-Asp], the IC50 in assay [1] is 0.315 µM; in assay [2] it was 5.25 µM.

For `CC(C)C[C@@H](N)[C@H](O)C(=O)N[C@H](C(=O)N[C@@H](CC(=O)O)C(=O)O)C(C)C` [X--Val--Asp], the IC50 is 32 µM in assay [1] and 0.799 µM in assay [2].

Take `CC(C)C[C@H](NC(=O)[C@@H](NC(=O)[C@@H](O)[C@H](N)CC(C)C)C(C)C)C(=O)N[C@@H](CC(=O)O)C(=O)O` [X--Val--Leu--Asp, (2S,3R)-AHMHA-Val-Leu-Asp]: the IC50 was 0.614 µM in assay [1] and 1.43 µM in assay [2].

For `CC(C)C[C@@H](N)[C@H](O)C(=O)N[C@H](C(=O)N[C@@H](CCCCN)C(=O)N[C@@H](CC(=O)O)C(=O)O)C(C)C` [X--Val--Lys--Asp, (2S,3R)-AHMHA-Val-Lys-Asp], the IC50 was 19.9 µM in assay [1] and 6.95 µM in assay [2].

For `CC(C)C[C@@H](N)[C@H](O)C(=O)N[C@H](C(=O)N[C@H](C(=O)N[C@@H](CC(=O)O)C(=O)O)[C@@H](C)O)C(C)C` [X--Val--Thr--Asp, (2S,3R)-AHMHA-Val-Thr-Asp], the IC50 in assay [1] and in assay [2] was 2.1 µM throughout.

Turning to `CC(C)C[C@@H](N)[C@H](O)C(=O)N[C@H](C(=O)N[C@H](C(=O)N[C@@H](Cc1ccccc1)C(=O)O)[C@@H](C)O)C(C)C` [X--Val--Thr--Phe, (2S,3R)-AHMHA-Val-Thr-Phe], the values for the IC50 in assay [1] and in assay [2] were 1.18 µM and 0.727 µM, respectively.

Regarding `CC(C)C[C@@H](N)[C@H](O)C(=O)N[C@H](C(=O)N[C@H](C(=O)N[C@@H](CCCNC(=N)N)C(=O)O)C(C)C)C(C)C` [X--Val--Val-- Arg, (2S,3R)-AHMHA-Val-Val-Arg], the IC50 in assay [1] is 26.2 µM; in assay [2], 38.8 µM.

For the molecule `CC(C)C[C@@H](N)[C@H](O)C(=O)N[C@H](C(=O)N[C@H](C(=O)N[C@@H](CCC(=O)O)C(=O)O)C(C)C)C(C)C` [X--Val--Val--Glu, reference compound], the IC50 was 4.09 µM in assay [1] and 4.5 µM in assay [2].

In the case of `CC(C)C[C@@H](N)[C@H](O)C(=O)N[C@H](C(=O)N[C@H](C(=O)N[C@@H](CCCCN)C(=O)O)C(C)C)C(C)C` [X--Val--Val--Lys, (2S,3R)-AHMHA-Val-Val-Lys], the IC50 in assay [1] was 43.1 µM; in assay [2] it was 65.6 µM.

`CC(C)C[C@@H](N)[C@H](O)C(=O)N[C@H](C(=O)N[C@H](C(=O)N[C@@H](Cc1ccccc1)C(=O)O)C(C)C)C(C)C` [X--Val--Val--Phe, (2S,3R)-AHMHA-Val-Val-Phe]: the IC50 in assay [1] was 14.2 µM; in assay [2], 4.34 µM.

In the case of `CC(C)C[C@@H](N)[C@H](O)C(=O)N[C@H](C(=O)N[C@H](C(=O)N1CCC[C@H]1C(=O)O)C(C)C)C(C)C` [X--Val--Val--Pro, (2S,3R)-AHMHA-Val-Val-Pro], the IC50 in assay [1] was 76.7 µM; in assay [2], 5.91 µM.

As for `CC(C)C[C@@H](N)[C@H](O)C(=O)N[C@H](C(=O)N[C@H](C(=O)N[C@H](C(=O)O)[C@@H](C)O)C(C)C)C(C)C` [X--Val--Val--Thr, (2S,3R)-AHMHA-Val-Val-Thr], the IC50 in assay [1] was 5.86 µM; in assay [2], 7.6 µM.

On to `CC(C)C[C@@H](N)[C@H](O)C(=O)N[C@H](C(=O)N[C@H](C(=O)N[C@H](C(=O)O)C(C)C)C(C)C)C(C)C` [X--Val--Val--Val, (2S,3R)-AHMHA-Val-Val-Val], for which the values for the IC50 in assay [1] and in assay [2] were 9.38 µM and 3.92 µM, respectively.

As to `CC(C)C[C@@H](N)[C@H](O)C(=O)N[C@H](C(=O)N[C@H](C(=O)N[C@H](C(=O)N[C@@H](CC(=O)O)C(=O)O)C(C)C)C(C)C)C(C)C` [X--Val--Val--Val--Asp] (X1-VVVD-OH), the IC50 was 31.4 µM in assay [1] and 7.32 µM in assay [2].

Regarding `CC(C)C[C@@H](N)[C@H](O)C(=O)N[C@H](C(=O)N[C@H](C(=O)O)C(C)C)C(C)C` [X--Val--Val], the IC50 in assay [1] is 10 µM; in assay [2], 2.5 µM.

In the case of `CC(C)C[C@@H](N)[C@H](O)C(=O)N[C@H](C(=O)O)C(C)C` [X--Val], the results for the IC50 in assay [1] and in assay [2] were 864 µM and 1.92 µM, respectively.
